From US11564923B2, “Compounds and pharmaceutical compositions thereof for the treatment of inflammatory disorders” (Galapagos NV, priority 2017, dated 2023) come the findings set out here.

For orientation: IC50 means the midpoint of a concentration-inhibition curve.

The target in experiment [1] is T1, Recombinant human JAK1 (catalytic domain, amino acids 866-1154) (Homo sapiens, UniProt P23458).
T1 construct: catalytic domain, amino acids 866-1154
The experiment is described as follows: JAK1 inhibition assay. The note with it: read-out: JAK1 potency IC50. It counts as biochemical.

The target in experiment [2] is T2, Recombinant human JAK2 (catalytic domain, amino acids 808-1132) (Homo sapiens, UniProt O60674).
T2 construct: catalytic domain, amino acids 808-1132
T2 sequence (O60674 808-1132): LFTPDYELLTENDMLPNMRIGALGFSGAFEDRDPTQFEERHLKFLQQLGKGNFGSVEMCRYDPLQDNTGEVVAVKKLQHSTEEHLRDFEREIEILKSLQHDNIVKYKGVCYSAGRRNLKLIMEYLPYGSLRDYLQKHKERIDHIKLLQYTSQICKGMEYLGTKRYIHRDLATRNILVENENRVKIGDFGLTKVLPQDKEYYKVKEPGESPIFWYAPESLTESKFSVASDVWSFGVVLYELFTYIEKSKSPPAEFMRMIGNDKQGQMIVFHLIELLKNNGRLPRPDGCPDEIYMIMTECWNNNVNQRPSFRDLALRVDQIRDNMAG
The experiment is described as follows: JAK2 inhibition assay. Further: 0.7 µM ATP. As to conditions: read-out: JAK2 potency IC50. It counts as biochemical.

The target of experiment [3] is Recombinant human JAK3 catalytic domain (amino acids 781-1124) (Homo sapiens, UniProt P52333). The experiment is described as follows: JAK3 inhibition assay. It counts as biochemical. Put shortly: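 Radiometric kinase reaction run 45 min at 30° C., stopped with phosphoric acid; activity as vehicle cpm minus 10 μM staurosporine cpm.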
Recombinant human JAK3 catalytic domain (amino acids 781-1124), sequence (P52333 781-1124): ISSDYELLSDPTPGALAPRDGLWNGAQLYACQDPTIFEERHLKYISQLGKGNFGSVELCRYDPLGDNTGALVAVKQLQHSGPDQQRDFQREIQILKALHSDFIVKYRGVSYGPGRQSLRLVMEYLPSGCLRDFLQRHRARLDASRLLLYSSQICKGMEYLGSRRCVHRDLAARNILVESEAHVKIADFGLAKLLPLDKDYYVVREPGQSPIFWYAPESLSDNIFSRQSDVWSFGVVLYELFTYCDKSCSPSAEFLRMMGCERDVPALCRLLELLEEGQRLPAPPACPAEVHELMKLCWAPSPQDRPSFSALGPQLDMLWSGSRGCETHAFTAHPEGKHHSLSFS
Experiment [4] has as its system IFNα activation of STAT1 in PBMC. The experiment is described as follows: IFNα activation of STAT1 in PBMC. It counts as cell-based. As to conditions: Homo sapiens; IFNα activation of STAT1 in PBMC; average IC50; read-out: IFNα signaling inhibitory potency IC50. Put shortly:
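Human PBMC, with red cells lysed by NH4Cl, were pre-treated with compound for 30 min at 37 °C and 5% CO2. They were then stimulated for 30 min with recombinant human IFNα at 5 ng/mL final.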

For experiment [5], the system named is IL-12 activation of STAT4 in NK-92 cells. In words: IL-12 activation of STAT4 in NK-92 cells using AphaLISA SureFire technology. It counts as cell-based. As to conditions: Homo sapiens, NK92; IL-12 activation of STAT4 in NK-92 cells, AlphaLISA SureFire; average IC50; read-out: IL12 pSTAT4 IC50. The procedure, abridged:
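NK-92 cells, starved of rhIL-2 overnight, were stimulated with rhIL-12 for 30 min at 37 °C with test compounds, then lysed. Phospho-STAT4 (Tyr693) was read by AlphaLISA SureFire. Percent inhibition versus the vehicle-plus-trigger signal was fitted by sigmoidal nonlinear regression to give IC50, averaged over experiments.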
(In general: Alpha assays give light when donor and acceptor beads are brought close together.)

T1 sequence (P23458 866-1154): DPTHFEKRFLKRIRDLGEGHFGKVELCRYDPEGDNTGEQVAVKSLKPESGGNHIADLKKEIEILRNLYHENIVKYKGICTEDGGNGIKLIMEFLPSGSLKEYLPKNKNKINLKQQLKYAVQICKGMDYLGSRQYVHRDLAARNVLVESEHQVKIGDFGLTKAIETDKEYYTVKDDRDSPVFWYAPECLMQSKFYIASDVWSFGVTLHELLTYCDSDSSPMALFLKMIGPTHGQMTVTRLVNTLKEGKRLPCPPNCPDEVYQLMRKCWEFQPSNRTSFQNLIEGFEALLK

In the case of `Cc1cc(C(F)(F)F)ncc1Oc1cc(Nc2cc(N)ncn2)c2ncn(C)c2n1` [Compound 1, N-[3-Methyl-5-(4-methyl-6-trifluoromethyl-pyridin-3-yloxy)-3H-imidazo[4,5-b]pyridin-7-yl]-pyrimidine-4,6-diamine], the IC50 worked out at 0.153 µM in experiment [1]; 0.0673 µM in experiment [2]; 1.49 µM in experiment [3]; 0.0855 µM in experiment [4]; 0.111 µM in experiment [5].
The like results for `Cc1cc(C#N)ncc1Nc1cc(Nc2ccc(C(=O)N(C)C)cn2)c2ncn(C)c2n1` [Compound 67, 6-[[5-[(6-cyano-4-methyl-3-pyridyl)amino]-3-methyl-imidazo[4,5-b]pyridin-7-yl]amino]-N,N-dimethyl-pyridine-3-carboxamide] were, in that order, 0.0514 µM, 0.0282 µM, 0.258 µM, 0.051 µM and 0.0541 µM.
The corresponding values for `Cc1cc(C#N)ncc1Oc1cc(Nc2ccc(S(=O)(=O)C(F)F)cc2)c2ncn(C)c2n1` [Compound 68, 5-[7-[4-(difluoromethylsulfonyl)anilino]-3-methyl-imidazo[4,5-b]pyridin-5-yl]oxy-4-methyl-pyridine-2-carbonitrile] are 0.113 µM, 0.175 µM, 2.76 µM, 0.128 µM and 0.122 µM.
The corresponding values for `Cc1cc(C#N)ncc1Oc1cc(Nc2ccc(S(=O)(=O)C3CC3)cc2)c2ncn(C)c2n1` [Compound 69, 5-[7-(4-cyclopropylsulfonylanilino)-3-methyl-imidazo[4,5-b]pyridin-5-yl]oxy-4-methyl-pyridine-2-carbonitrile] are 0.0613 µM, 0.07 µM, 1.31 µM, 0.09 µM and 0.0428 µM.
Regarding `Cc1cc(C#N)ncc1N(c1cc(Nc2cc(N)ncn2)c2ncn(C)c2n1)C1CC1` [Compound 88, 5-[[7-[(6-aminopyrimidin-4-yl)amino]-3-methyl-imidazo[4,5-b]pyridin-5-yl]-cyclopropyl-amino]-4-methyl-pyridine-2-carbonitrile], the IC50 was 0.0053 µM in experiment [1]; 0.00142 µM in experiment [2]; 0.189 µM in experiment [3]; 0.014 µM in experiment [4]; 0.022 µM in experiment [5].
For the molecule `Cn1cnc2c(Nc3ccc(S(C)(=O)=O)cn3)cc(NC(C3CC3)C(F)(F)F)nc21` (stereo not shown) [Compound 92, N5-(1-cyclopropyl-2,2,2-trifluoro-ethyl)-3-methyl-N7-(5-methylsulfonyl-2-pyridyl)imidazo[4,5-b]pyridine-5,7-diamine], the IC50 in experiment [1] was 0.0096 µM; in experiment [2], 0.00117 µM; in experiment [3] it was 0.013 µM; in experiment [4], 0.067 µM.
With `CC(C)C(Nc1cc(Nc2cc(N)ncn2)c2ncn(C)c2n1)C(F)(F)F` (stereo not shown) [Compound 93, N7-(6-aminopyrimidin-4-yl)-3-methyl-N5-[2-methyl-1-(trifluoromethyl)propyl)imidazo[4,5-b]pyridine-5,7-diamine], the IC50 in experiment [1] came to 0.0571 µM; in experiment [2] it was 0.0164 µM; in experiment [3], 0.0774 µM; in experiment [4] it was 0.065 µM; in experiment [5] it was 0.0254 µM.
